Test results published in ChEMBL document CHEMBL3797068, “eCF309: a potent, selective and cell-permeable mTOR inhibitor” (Medchemcomm, 2016).
The source made the active and inactive calls. The rule behind the calls is not given here.

Experiments:
[1] = biological target: Mast/stem cell growth factor receptor Kit (Homo sapiens, UniProt P10721); assay: Inhibition of human KIT using (poly [Glu, Tyr] 4:1) as substrate assessed as incorporation of 33P in substrate by [gamma33P] ATP-based kinase assay
MCF7 = assay: Cytotoxicity against human MCF7 cells after 5 days by Presto blue reagent-based fluorescence analysis; type: functional, cell-based
[2] = biological target: Platelet-derived growth factor receptor alpha (Homo sapiens, UniProt P16234); assay: Inhibition of human PDGFRalpha using (poly [Glu, Tyr] 4:1) as substrate assessed as incorporation of 33P in substrate by [gamma33P] ATP-based kinase assay
[3] = biological target: Tyrosine-protein kinase Blk (Homo sapiens, UniProt P51451); assay: Inhibition of human BLK using (poly [Glu, Tyr] 4:1) as substrate assessed as incorporation of 33P in substrate by [gamma33P] ATP-based kinase assay
[4] = biological target: Phosphatidylinositol 4,5-bisphosphate 3-kinase catalytic subunit beta isoform (Homo sapiens, UniProt P42338); assay: Inhibition of PI3Kbeta (unknown origin) using (poly [Glu, Tyr] 4:1) as substrate assessed as incorporation of 33P in substrate by [gamma33P] ATP-based kinase assay
[5] = biological target: Phosphatidylinositol 4,5-bisphosphate 3-kinase catalytic subunit gamma isoform (Homo sapiens, UniProt P48736); assay: Inhibition of PI3Kgamma (unknown origin) using (poly [Glu, Tyr] 4:1) as substrate assessed as incorporation of 33P in substrate by [gamma33P] ATP-based kinase assay
[6] = biological target: Phosphatidylinositol 4,5-bisphosphate 3-kinase catalytic subunit alpha isoform (Homo sapiens, UniProt P42336); assay: Inhibition of PI3Kalpha (unknown origin) using (poly [Glu, Tyr] 4:1) as substrate assessed as incorporation of 33P in substrate by [gamma33P] ATP-based kinase assay
[7] = biological target: Proto-oncogene tyrosine-protein kinase receptor Ret (Homo sapiens, UniProt P07949); assay: Inhibition of human RET using (poly [Glu, Tyr] 4:1) as substrate assessed as incorporation of 33P in substrate by [gamma33P] ATP-based kinase assay
[8] = biological target: Tyrosine-protein kinase Yes (Homo sapiens, UniProt P07947); assay: Inhibition of human YES using (poly [Glu, Tyr] 4:1) as substrate assessed as incorporation of 33P in substrate by [gamma33P] ATP-based kinase assay
[9] = biological target: Tyrosine-protein kinase Fyn (Homo sapiens, UniProt P06241); assay: Inhibition of human FYN using (poly [Glu, Tyr] 4:1) as substrate assessed as incorporation of 33P in substrate by [gamma33P] ATP-based kinase assay
[10] = biological target: T1, Phosphatidylinositol 4,5-bisphosphate 3-kinase catalytic subunit delta isoform (Homo sapiens, UniProt O00329); assay: Inhibition of PI3Kdelta (unknown origin) using (poly [Glu, Tyr] 4:1) as substrate assessed as incorporation of 33P in substrate by [gamma33P] ATP-based kinase assay
T1 sequence (O00329 whole entry): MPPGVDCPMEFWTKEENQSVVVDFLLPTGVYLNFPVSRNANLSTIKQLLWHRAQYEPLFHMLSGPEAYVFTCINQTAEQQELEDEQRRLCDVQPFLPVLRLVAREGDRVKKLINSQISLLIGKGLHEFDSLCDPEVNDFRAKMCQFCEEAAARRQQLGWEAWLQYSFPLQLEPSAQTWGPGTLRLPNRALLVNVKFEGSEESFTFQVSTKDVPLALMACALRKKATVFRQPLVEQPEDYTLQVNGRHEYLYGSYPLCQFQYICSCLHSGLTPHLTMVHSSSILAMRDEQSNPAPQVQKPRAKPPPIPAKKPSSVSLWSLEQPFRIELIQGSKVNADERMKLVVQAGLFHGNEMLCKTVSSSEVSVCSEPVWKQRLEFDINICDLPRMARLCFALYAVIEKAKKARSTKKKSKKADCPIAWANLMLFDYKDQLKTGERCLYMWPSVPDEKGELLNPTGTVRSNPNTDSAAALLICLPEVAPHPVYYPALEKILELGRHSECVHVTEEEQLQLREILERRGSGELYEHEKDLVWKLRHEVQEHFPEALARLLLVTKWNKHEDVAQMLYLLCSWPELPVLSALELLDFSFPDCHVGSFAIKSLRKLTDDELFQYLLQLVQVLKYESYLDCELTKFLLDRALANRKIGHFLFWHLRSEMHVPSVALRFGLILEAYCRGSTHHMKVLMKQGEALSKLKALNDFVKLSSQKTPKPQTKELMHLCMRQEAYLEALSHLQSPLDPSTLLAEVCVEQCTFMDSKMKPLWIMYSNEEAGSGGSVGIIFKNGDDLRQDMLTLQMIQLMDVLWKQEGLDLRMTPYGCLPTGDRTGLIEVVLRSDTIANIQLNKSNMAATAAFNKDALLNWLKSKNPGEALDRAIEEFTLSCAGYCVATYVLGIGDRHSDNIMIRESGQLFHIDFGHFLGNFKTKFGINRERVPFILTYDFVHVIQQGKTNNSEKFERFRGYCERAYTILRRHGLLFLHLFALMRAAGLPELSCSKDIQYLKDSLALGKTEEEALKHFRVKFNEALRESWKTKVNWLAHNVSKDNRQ

[11] = biological target: Tyrosine-protein kinase ABL1 (Homo sapiens, UniProt P00519); assay: Inhibition of human ABL using (poly [Glu, Tyr] 4:1) as substrate assessed as incorporation of 33P in substrate by [gamma33P] ATP-based kinase assay
[12] = biological target: Proto-oncogene tyrosine-protein kinase Src (Homo sapiens, UniProt P12931); assay: Inhibition of human SRC using (poly [Glu, Tyr] 4:1) as substrate assessed as incorporation of 33P in substrate by [gamma33P] ATP-based kinase assay
[13] = biological target: Serine/threonine-protein kinase mTOR (Homo sapiens, UniProt P42345); assay: Inhibition of human mTOR using (poly [Glu, Tyr] 4:1) as substrate assessed as incorporation of 33P in substrate by [gamma33P] ATP-based kinase assay

Sequence of Platelet-derived growth factor receptor alpha (P16234 whole entry): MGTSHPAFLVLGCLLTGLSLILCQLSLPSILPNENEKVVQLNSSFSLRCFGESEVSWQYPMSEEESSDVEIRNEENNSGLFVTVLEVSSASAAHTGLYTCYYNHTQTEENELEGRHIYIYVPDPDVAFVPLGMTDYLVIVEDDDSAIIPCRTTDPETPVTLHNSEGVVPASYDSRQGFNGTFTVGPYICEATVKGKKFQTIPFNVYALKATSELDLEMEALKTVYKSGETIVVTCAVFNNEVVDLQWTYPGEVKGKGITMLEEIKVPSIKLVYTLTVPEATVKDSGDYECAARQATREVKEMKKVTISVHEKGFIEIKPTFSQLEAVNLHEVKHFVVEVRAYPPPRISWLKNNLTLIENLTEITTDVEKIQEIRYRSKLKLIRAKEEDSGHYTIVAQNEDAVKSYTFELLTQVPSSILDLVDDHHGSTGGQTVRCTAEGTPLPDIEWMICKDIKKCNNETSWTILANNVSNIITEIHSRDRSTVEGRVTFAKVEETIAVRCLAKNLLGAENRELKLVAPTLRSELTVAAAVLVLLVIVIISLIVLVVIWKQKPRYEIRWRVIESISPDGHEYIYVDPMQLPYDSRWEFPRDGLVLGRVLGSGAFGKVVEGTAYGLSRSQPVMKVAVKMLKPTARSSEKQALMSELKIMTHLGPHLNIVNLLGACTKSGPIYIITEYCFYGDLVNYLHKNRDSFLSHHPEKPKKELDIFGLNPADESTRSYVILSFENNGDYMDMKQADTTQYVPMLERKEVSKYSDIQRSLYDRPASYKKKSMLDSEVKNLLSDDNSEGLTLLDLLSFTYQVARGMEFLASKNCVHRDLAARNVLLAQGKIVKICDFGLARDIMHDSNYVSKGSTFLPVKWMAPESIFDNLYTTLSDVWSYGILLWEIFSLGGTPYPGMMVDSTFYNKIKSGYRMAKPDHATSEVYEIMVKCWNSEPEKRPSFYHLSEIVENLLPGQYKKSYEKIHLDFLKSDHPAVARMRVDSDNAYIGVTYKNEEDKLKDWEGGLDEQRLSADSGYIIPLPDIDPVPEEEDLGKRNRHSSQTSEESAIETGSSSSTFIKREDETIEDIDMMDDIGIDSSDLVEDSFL
Sequence of Mast/stem cell growth factor receptor Kit (P10721 whole entry): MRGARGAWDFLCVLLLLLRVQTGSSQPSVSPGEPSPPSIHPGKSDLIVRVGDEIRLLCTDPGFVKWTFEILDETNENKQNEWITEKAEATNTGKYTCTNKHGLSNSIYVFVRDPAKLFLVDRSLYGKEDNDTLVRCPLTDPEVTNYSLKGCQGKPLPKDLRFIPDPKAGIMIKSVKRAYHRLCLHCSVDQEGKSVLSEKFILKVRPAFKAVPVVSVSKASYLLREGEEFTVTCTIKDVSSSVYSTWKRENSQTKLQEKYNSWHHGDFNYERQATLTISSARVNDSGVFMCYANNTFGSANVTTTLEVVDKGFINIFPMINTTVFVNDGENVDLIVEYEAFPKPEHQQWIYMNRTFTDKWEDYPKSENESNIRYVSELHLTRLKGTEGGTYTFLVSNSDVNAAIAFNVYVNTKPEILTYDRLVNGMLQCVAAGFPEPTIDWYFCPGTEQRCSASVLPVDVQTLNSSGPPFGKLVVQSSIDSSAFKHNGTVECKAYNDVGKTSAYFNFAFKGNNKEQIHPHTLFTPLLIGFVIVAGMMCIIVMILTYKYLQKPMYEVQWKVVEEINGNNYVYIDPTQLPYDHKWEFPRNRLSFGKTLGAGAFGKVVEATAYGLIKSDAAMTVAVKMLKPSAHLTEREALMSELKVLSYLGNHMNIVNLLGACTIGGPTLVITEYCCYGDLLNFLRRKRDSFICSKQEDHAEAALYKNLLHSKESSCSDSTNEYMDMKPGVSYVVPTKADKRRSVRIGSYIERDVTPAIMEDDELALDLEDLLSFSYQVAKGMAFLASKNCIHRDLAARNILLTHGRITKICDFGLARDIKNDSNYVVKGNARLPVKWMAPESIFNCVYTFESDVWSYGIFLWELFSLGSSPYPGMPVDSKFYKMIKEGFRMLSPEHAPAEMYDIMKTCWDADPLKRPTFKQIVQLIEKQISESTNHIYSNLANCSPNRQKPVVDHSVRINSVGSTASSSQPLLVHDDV
Sequence of Tyrosine-protein kinase Blk (P51451 whole entry, canonical isoform): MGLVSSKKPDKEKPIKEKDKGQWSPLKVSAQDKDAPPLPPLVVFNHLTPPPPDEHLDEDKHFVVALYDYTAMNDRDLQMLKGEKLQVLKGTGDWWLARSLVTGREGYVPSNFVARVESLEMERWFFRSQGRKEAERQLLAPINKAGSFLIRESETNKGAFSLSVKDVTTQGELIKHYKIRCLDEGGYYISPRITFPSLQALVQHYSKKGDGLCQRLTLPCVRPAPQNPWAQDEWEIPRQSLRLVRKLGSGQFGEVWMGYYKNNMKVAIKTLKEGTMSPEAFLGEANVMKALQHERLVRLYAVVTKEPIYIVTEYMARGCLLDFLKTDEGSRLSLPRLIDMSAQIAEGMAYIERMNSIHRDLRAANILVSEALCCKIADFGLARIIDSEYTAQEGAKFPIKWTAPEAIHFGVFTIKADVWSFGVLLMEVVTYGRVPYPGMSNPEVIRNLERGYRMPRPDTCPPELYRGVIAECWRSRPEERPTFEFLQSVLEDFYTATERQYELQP
Sequence of Phosphatidylinositol 4,5-bisphosphate 3-kinase catalytic subunit gamma isoform (P48736 whole entry, canonical isoform): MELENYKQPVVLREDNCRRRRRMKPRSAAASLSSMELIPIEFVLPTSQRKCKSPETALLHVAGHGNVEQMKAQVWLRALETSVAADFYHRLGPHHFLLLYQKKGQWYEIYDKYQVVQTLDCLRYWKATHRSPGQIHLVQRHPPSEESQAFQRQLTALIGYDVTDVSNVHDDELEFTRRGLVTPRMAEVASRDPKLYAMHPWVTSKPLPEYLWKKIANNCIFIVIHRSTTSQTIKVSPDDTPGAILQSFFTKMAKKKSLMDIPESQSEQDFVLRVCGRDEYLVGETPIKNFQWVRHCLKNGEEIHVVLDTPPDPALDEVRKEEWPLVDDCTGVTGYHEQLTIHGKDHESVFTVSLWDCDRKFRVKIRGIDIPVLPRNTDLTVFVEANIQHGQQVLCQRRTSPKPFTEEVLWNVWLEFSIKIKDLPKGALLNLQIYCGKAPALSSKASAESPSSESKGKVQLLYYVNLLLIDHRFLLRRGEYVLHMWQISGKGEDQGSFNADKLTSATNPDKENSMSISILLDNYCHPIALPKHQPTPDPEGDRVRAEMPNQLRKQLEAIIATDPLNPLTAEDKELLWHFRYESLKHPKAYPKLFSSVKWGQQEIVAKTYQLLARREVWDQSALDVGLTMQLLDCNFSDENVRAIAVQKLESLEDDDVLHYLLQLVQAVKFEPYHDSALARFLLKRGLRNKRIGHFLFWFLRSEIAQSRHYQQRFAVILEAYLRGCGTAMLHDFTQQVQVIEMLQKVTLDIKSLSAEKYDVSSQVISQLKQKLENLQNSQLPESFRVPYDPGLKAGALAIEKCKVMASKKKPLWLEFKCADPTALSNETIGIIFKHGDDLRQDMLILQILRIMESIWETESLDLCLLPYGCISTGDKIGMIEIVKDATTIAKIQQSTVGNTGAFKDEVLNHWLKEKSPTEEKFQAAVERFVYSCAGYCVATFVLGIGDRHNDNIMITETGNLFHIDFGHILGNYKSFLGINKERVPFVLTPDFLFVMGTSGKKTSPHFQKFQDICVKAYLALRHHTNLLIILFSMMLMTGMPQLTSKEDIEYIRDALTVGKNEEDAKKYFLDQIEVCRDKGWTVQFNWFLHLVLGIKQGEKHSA
Sequence of Tyrosine-protein kinase ABL1 (P00519 whole entry): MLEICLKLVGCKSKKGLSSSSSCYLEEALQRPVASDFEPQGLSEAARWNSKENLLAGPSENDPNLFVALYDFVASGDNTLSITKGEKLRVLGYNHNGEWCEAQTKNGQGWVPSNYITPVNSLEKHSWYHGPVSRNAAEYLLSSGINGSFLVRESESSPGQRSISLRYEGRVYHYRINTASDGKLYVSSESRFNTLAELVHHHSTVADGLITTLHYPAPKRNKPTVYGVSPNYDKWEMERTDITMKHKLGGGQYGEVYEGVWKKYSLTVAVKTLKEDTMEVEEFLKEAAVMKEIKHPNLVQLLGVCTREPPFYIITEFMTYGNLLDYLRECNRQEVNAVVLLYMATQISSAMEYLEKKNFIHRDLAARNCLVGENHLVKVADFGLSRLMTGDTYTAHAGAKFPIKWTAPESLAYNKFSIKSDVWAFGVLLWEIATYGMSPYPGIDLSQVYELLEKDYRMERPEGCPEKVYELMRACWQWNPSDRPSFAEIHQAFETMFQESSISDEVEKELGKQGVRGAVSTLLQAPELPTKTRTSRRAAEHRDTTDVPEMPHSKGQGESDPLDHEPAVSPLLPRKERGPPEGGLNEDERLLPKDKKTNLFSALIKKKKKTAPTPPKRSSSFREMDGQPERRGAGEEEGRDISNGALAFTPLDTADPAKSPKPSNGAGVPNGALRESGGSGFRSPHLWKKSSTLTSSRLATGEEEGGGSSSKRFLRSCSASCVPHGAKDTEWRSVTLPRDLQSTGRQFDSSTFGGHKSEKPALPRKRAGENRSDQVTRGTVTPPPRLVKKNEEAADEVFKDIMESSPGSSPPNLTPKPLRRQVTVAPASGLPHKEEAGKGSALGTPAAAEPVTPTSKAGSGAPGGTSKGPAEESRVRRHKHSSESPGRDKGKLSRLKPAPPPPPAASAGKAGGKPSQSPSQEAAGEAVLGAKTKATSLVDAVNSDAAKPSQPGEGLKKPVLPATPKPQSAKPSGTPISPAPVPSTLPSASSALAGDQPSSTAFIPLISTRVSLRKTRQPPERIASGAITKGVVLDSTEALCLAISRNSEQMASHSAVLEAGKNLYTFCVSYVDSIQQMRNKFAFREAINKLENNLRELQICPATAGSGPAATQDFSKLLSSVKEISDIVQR

IC50 [1]	IC50 [2]	IC50 [3]	IC50 [4]	IC50 [5]	IC50 [6]	IC50 [7]	IC50 [8]	IC50 [9]	IC50 [10]	IC50 [11]	IC50 [12]	IC50 [13]	SMILES	Activity (MCF7)	EC50 (MCF7; MCF7, 120 h)
> 100 µM	> 100 µM	> 100 µM											CCOC(Cn1nc(-c2cnc3[nH]ccc3c2)c2c(N)ncnc21)OCC	Active	
													CNC(=O)c1cccc(-c2ccc3c(N4CCOC[C@@H]4C)nc(N4CCOC[C@@H]4C)nc3n2)c1	Active	
> 100 µM	> 100 µM	> 100 µM	3.85 µM	0.302 µM	0.115 µM	> 100 µM	> 100 µM	> 100 µM	0.271 µM	8.63 µM	> 100 µM	0.059 µM	Nc1nc2cc(-c3nn(CC4OCCO4)c4ncnc(N)c34)ccc2o1		0.0076 µM
